Experimental data from ChEMBL document CHEMBL4130462, “Natural isoflavone biochanin A as a template for the design of new and potent 3-phenylquinolone efflux inhibitors against Mycobacterium avium” (Eur J Med Chem, 2017).
Values after ≈ are worked out from the molar mass of the structure shown.

Assays:
[1] = system: Mycobacterium avium subsp. avium ATCC 25291
Description: Inhibition of multidrug resistance efflux pump in Mycobacterium avium ATCC 25291 assessed as potentiation of clarithromycin -induced antibacterial activity by measuring clarithromycin MIC at 1/4 MIC incubated for 3 days by MTT assay

Mycobacterium avium [2] = conditions: isolate MAV1
Description: Inhibition of multidrug resistance efflux pump in Mycobacterium avium isolate MAV1 assessed as potentiation of ciprofloxacin-induced antibacterial activity by measuring ciprofloxacin MIC at 1/2 MIC incubated for 3 days by MTT assay (Rvb = 2 ug/ml)

Mycobacterium avium [3] = conditions: 104
Mycobacterium avium [4] = conditions: 104 mc'2 3
Mycobacterium avium [5] = conditions: 104; remark: listed apart in the source
Mycobacterium avium [6] = conditions: 104 mc'2 4
Mycobacterium avium [7] = conditions: 104; remark: listed apart in the source
[8] = system: Mycobacterium avium subsp. avium ATCC 25291; remark: listed apart in the source
[9] = Safety index, ratio of MTC for test compound to MTC for thioridazine for cytotoxicity in human monocyte-derived macrophages; assay type: cell-based, Macrophage cell line
Mycobacterium avium [10] = assay: Antimycobacterial activity against Mycobacterium avium ATCC 25291 assessed as reduction in bacterial viability incubated for 3 days by MTT assay; assay type: organism-based; conditions: mycobacterium avium subsp. avium atcc 25291, 72 h
[11] = Safety index, ratio of MTC for test compound to MTC for chlorpromazine for cytotoxicity in human monocyte-derived macrophages; assay type: cell-based, Macrophage cell line
Mycobacterium avium [12] = conditions: isolate MAV4
Mycobacterium avium [13] = conditions: isolate MAV3
Mycobacterium avium [14] = conditions: 104 mc'2 3; remark: listed apart in the source
Mycobacterium avium [15] = conditions: 104 mc'2 3; remark: listed apart in the source
Mycobacterium avium [16] = conditions: isolate MAV4; remark: listed apart in the source
[17] = system: Mycobacterium avium subsp. avium ATCC 25291; remark: listed apart in the source
Mycobacterium avium [18] = conditions: isolate MAV3; remark: listed apart in the source
Mycobacterium avium [19] = conditions: isolate MAV2
Description: Inhibition of multidrug resistance efflux pump in Mycobacterium avium isolate MAV2 assessed as potentiation of ofloxacin-induced antibacterial activity by measuring ofloxacin MIC at 1/2 MIC incubated for 3 days by MTT assay

Mycobacterium avium [20] = conditions: isolate MAV1; remark: listed apart in the source
Description: Inhibition of multidrug resistance efflux pump in Mycobacterium avium isolate MAV1 assessed as potentiation of ciprofloxacin-induced antibacterial activity by measuring ciprofloxacin MIC at 1/4 MIC incubated for 3 days by MTT assay

Mycobacterium avium [21] = conditions: 104 mc'2 4; remark: listed apart in the source
Mycobacterium avium [22] = conditions: 72 h
Description: Antimycobacterial activity against Mycobacterium avium 104 assessed as reduction in bacterial viability incubated for 3 days by MTT assay

Mycobacterium avium [23] = conditions: isolate MAV2; remark: listed apart in the source
Mycobacterium avium [24] = conditions: isolate MAV2; remark: listed apart in the source
Mycobacterium avium [25] = conditions: 104 mc'2 4; remark: listed apart in the source
[26] = Cytotoxicity in human monocyte-derived macrophages assessed as reduction in cell viability incubated for 3 days by alamar blue dye based assay; design: species or system Macrophage cell line
Mycobacterium avium [27] = conditions: isolate MAV3; remark: listed apart in the source
Mycobacterium avium [28] = conditions: isolate MAV1; remark: listed apart in the source
Mycobacterium avium [29] = conditions: isolate MAV3; remark: listed apart in the source
Mycobacterium avium [30] = assay: Antimycobacterial activity against Mycobacterium avium isolate MAV4 assessed as reduction in bacterial viability incubated for 3 days by MTT assay; assay type: organism-based; conditions: 72 h
Mycobacterium avium [31] = assay: Antimycobacterial activity against Mycobacterium avium isolate MAV3 assessed as reduction in bacterial viability incubated for 3 days by MTT assay; assay type: organism-based; conditions: 72 h
Mycobacterium avium [32] = conditions: 104; remark: listed apart in the source
Description: Inhibition of multidrug resistance efflux pump in Mycobacterium avium 104 assessed as potentiation of clarithromycin -induced antibacterial activity by measuring clarithromycin MIC at 1/4 MIC incubated for 3 days by MTT assay

Mycobacterium avium [33] = conditions: isolate MAV3; remark: listed apart in the source
Mycobacterium avium [34] = conditions: 104 mc'2 3; remark: listed apart in the source
[35] = system: Mycobacterium avium subsp. avium ATCC 25291; remark: listed apart in the source
Mycobacterium avium [36] = conditions: 104; remark: listed apart in the source
Mycobacterium avium [37] = conditions: isolate MAV2; remark: listed apart in the source
Description: Inhibition of multidrug resistance efflux pump in Mycobacterium avium isolate MAV2 assessed as potentiation of ofloxacin-induced antibacterial activity by measuring ofloxacin MIC at 1/4 MIC incubated for 3 days by MTT assay

Mycobacterium avium [38] = conditions: isolate MAV4; remark: listed apart in the source
Description: Inhibition of multidrug resistance efflux pump in Mycobacterium avium isolate MAV4 assessed as potentiation of clarithromycin -induced antibacterial activity by measuring clarithromycin MIC at 1/2 MIC incubated for 3 days by MTT assay

Mycobacterium avium [39] = conditions: isolate MAV4; remark: listed apart in the source
Description: Inhibition of multidrug resistance efflux pump in Mycobacterium avium isolate MAV4 assessed as potentiation of clarithromycin -induced antibacterial activity by measuring clarithromycin MIC at 1/4 MIC incubated for 3 days by MTT assay

Mycobacterium avium [40] = conditions: isolate MAV2; remark: listed apart in the source
Mycobacterium avium [41] = conditions: isolate MAV4; remark: listed apart in the source
Mycobacterium avium [42] = conditions: isolate MAV3; remark: listed apart in the source
Mycobacterium avium [43] = conditions: isolate MAV3; remark: listed apart in the source
Mycobacterium avium [44] = conditions: isolate MAV3; remark: listed apart in the source
Mycobacterium avium [45] = conditions: 104; remark: listed apart in the source
Mycobacterium avium [46] = conditions: isolate MAV2; remark: listed apart in the source
[47] = Safety index, ratio of CC50 for test compound to CC50 for chlorpromazine for cytotoxicity in human monocyte-derived macrophages; assay type: cell-based, Macrophage cell line
Mycobacterium avium [48] = conditions: 104; remark: listed apart in the source
Mycobacterium avium [49] = conditions: 104 mc'2 4; remark: listed apart in the source
Mycobacterium avium [50] = conditions: 104 mc'2 4; remark: listed apart in the source
Mycobacterium avium [51] = assay: Antimycobacterial activity against Mycobacterium avium isolate MAV1 assessed as reduction in bacterial viability incubated for 3 days by MTT assay; assay type: organism-based; conditions: in vitro, 72 h
Mycobacterium avium [52] = conditions: 104 mc'2 3; remark: listed apart in the source
Mycobacterium avium [53] = conditions: isolate MAV1; remark: listed apart in the source
Mycobacterium avium [54] = conditions: isolate MAV2; remark: listed apart in the source
Description: Inhibition of multidrug resistance efflux pump in Mycobacterium avium isolate MAV2 assessed as potentiation of clarithromycin -induced antibacterial activity by measuring clarithromycin MIC at 1/2 MIC incubated for 3 days by MTT assay (Rvb = >1024 ug/ml)

[55] = system: Mycobacterium avium subsp. avium ATCC 25291; remark: listed apart in the source
Description: Inhibition of multidrug resistance efflux pump in Mycobacterium avium ATCC 25291 assessed as potentiation of ethidium bromide-induced antibacterial activity by measuring ethidium bromide MIC at 1/4 MIC incubated for 3 days by MTT assay

Mycobacterium avium [56] = conditions: 104 mc'2 4; remark: listed apart in the source
Mycobacterium avium [57] = conditions: in vivo, 72 h
Description: Antimycobacterial activity against Mycobacterium avium 104 mc'2 4 assessed as reduction in bacterial viability incubated for 3 days by MTT assay

Mycobacterium avium [58] = assay: Antimycobacterial activity against Mycobacterium avium isolate MAV2 assessed as reduction in bacterial viability incubated for 3 days by MTT assay; assay type: organism-based; conditions: 72 h
Mycobacterium avium [59] = conditions: isolate MAV4; remark: listed apart in the source
Mycobacterium avium [60] = conditions: 104 mc'2 3; remark: listed apart in the source
Mycobacterium avium [61] = conditions: isolate MAV3; remark: listed apart in the source
Mycobacterium avium [62] = conditions: isolate MAV2; remark: listed apart in the source
Mycobacterium avium [63] = conditions: 104; remark: listed apart in the source
[64] = system: Mycobacterium avium subsp. avium ATCC 25291; remark: listed apart in the source
Description: Inhibition of multidrug resistance efflux pump in Mycobacterium avium ATCC 25291 assessed as potentiation of clarithromycin -induced antibacterial activity by measuring clarithromycin MIC at 1/2 MIC incubated for 3 days by MTT assay

Mycobacterium avium [65] = conditions: 104 mc'2 4; remark: listed apart in the source
Mycobacterium avium [66] = conditions: isolate MAV4; remark: listed apart in the source
Description: Inhibition of multidrug resistance efflux pump in Mycobacterium avium isolate MAV4 assessed as potentiation of ethidium bromide-induced antibacterial activity by measuring ethidium bromide MIC at 1/4 MIC incubated for 3 days by MTT assay

SMILES: CCCOc1ccc(-c2cn(CCN3CCCCC3)c3ccccc3c2=O)cc1
- MIC [1]: 4 µg/mL (≈ 10.2 µM)
- MIC (Mycobacterium avium [2]): < 0.031 µg/mL
- MIC (Mycobacterium avium [3]): < 0.195 µg/mL
- MIC (Mycobacterium avium [4]): < 4 µg/mL
- MIC (Mycobacterium avium [5]): < 0.125 µg/mL
- MIC (Mycobacterium avium [6]): 4 µg/mL (≈ 10.2 µM)
- MIC (Mycobacterium avium [7]): < 0.195 µg/mL
- MIC [8]: < 0.25 µg/mL
- selectivity ratio [9]: 4 to 6
- MIC (Mycobacterium avium [10]): 256 µg/mL (≈ 656 µM)
- selectivity ratio [11]: 2 to 4
- MIC (Mycobacterium avium [12]): < 4 µg/mL
- MIC (Mycobacterium avium [13]): 16 µg/mL (≈ 41 µM)
- MIC (Mycobacterium avium [14]): 3.12 µg/mL (≈ 8 µM)
- MIC (Mycobacterium avium [15]): 256 µg/mL (≈ 656 µM)
- MIC (Mycobacterium avium [16]): 2 µg/mL (≈ 5.12 µM)
- MIC [17]: < 0.5 µg/mL
- MIC (Mycobacterium avium [18]): 4 µg/mL (≈ 10.2 µM)
- MIC (Mycobacterium avium [19]): 2 µg/mL (≈ 5.12 µM)
- MIC (Mycobacterium avium [20]): 2 µg/mL (≈ 5.12 µM)
- MIC (Mycobacterium avium [21]): 2 µg/mL (≈ 5.12 µM)
- MIC (Mycobacterium avium [22]): > 256 µg/mL
- MIC (Mycobacterium avium [23]): 512 µg/mL (≈ 1310 µM)
- MIC (Mycobacterium avium [24]): 512 µg/mL (≈ 1310 µM)
- MIC (Mycobacterium avium [25]): < 4 µg/mL
- CC50 at 72 h ([26]; human monocyte-derived macrophages): 82.2 µM
- MTC ([26]; macrophage cell line, 72 h): 40 µM
- MIC (Mycobacterium avium [27]): 0.5 µg/mL (≈ 1.28 µM)
- MIC (Mycobacterium avium [28]): < 4 µg/mL
- MIC (Mycobacterium avium [29]): 32 µg/mL (≈ 81.9 µM)
- MIC (Mycobacterium avium [30]): 256 µg/mL (≈ 656 µM)
- MIC (Mycobacterium avium [31]): 128 µg/mL (≈ 328 µM)
- MIC (Mycobacterium avium [32]): < 0.125 µg/mL
- MIC (Mycobacterium avium [33]): 2 µg/mL (≈ 5.12 µM)
- MIC (Mycobacterium avium [34]): < 0.125 µg/mL
- MIC [35]: 8 µg/mL (≈ 20.5 µM)
- MIC (Mycobacterium avium [36]): < 0.125 µg/mL
- MIC (Mycobacterium avium [37]): 4 µg/mL (≈ 10.2 µM)
- MIC (Mycobacterium avium [38]): < 0.0625 µg/mL
- MIC (Mycobacterium avium [39]): 1 µg/mL (≈ 2.56 µM)
- MIC (Mycobacterium avium [40]): 256 µg/mL (≈ 656 µM)
- MIC (Mycobacterium avium [41]): < 4 µg/mL
- MIC (Mycobacterium avium [42]): < 4 µg/mL
- MIC (Mycobacterium avium [43]): 2 µg/mL (≈ 5.12 µM)
- MIC (Mycobacterium avium [44]): 3.12 µg/mL (≈ 8 µM)
- MIC (Mycobacterium avium [45]): < 0.125 µg/mL
- MIC (Mycobacterium avium [46]): 1 µg/mL (≈ 2.56 µM)
- selectivity ratio [47]: 2 to 4
- MIC (Mycobacterium avium [48]): < 0.125 µg/mL
- MIC (Mycobacterium avium [49]): < 4 µg/mL
- MIC (Mycobacterium avium [50]): 128 µg/mL (≈ 328 µM)
- MIC (Mycobacterium avium [51]): 128 µg/mL (≈ 328 µM)
- MIC (Mycobacterium avium [52]): < 0.125 µg/mL
- MIC (Mycobacterium avium [53]): < 0.195 µg/mL
- MIC (Mycobacterium avium [54]): 256 µg/mL (≈ 656 µM)
- MIC [55]: 12.5 µg/mL (≈ 32 µM)
- MIC (Mycobacterium avium [56]): 128 µg/mL (≈ 328 µM)
- MIC (Mycobacterium avium [57]): 256 µg/mL (≈ 656 µM)
- MIC (Mycobacterium avium [58]): 256 µg/mL (≈ 656 µM)
- MIC (Mycobacterium avium [59]): < 0.125 µg/mL
- MIC (Mycobacterium avium [60]): < 4 µg/mL
- MIC (Mycobacterium avium [61]): 64 µg/mL (≈ 164 µM)
- MIC (Mycobacterium avium [62]): 1 µg/mL (≈ 2.56 µM)
- MIC (Mycobacterium avium [63]): < 0.125 µg/mL
- MIC [64]: < 0.0625 µg/mL
- MIC (Mycobacterium avium [65]): < 0.195 µg/mL
- MIC (Mycobacterium avium [66]): 3.12 µg/mL (≈ 8 µM)
